In the supplement of paper PMC10307832:

Experiments:
Assay in all cases: relative viability (nuclei count vs DMSO), 5 days (fraction); higher = more cells survive
NCI-H1915 = tested on: NCI-H1915
Procedure, shortened: (§1)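 The day after seeding in 1536-well plates, lung cancer cell lines were treated by pin tool with a single drug, or with a fixed anchor-drug dose together with five library-drug doses (not always all listed) in √10 steps. After 5 days, a combined fix-and-stain solution (final 0.05% Triton X-100, 1% formaldehyde, 1 ug/ml Hoechst) was added. Nuclei counted on 4× images gave relative viability as treated counts over vehicle counts, reported as the median of duplicate plates.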

SK-LU-1 = tested on: SK-LU-1
Procedure, shortened: as §1

A-427 = tested on: A-427
Procedure, shortened: as §1

HCC-366 = tested on: HCC-366
Procedure, shortened: as §1

NCI-H1355 = tested on: NCI-H1355
Procedure, shortened: as §1

NCI-H23 = tested on: NCI-H23
Procedure, shortened: as §1

NCI-H1437 = tested on: NCI-H1437
Procedure, shortened: as §1

NCI-H1792 = tested on: NCI-H1792
Procedure, shortened: as §1

SW 1573 = tested on: SW 1573
Procedure, shortened: as §1

NCI-H1395 = tested on: NCI-H1395
Procedure, shortened: as §1

COR-L 105 = tested on: COR-L 105
Procedure, shortened: as §1

NCI-H727 = tested on: NCI-H727
Procedure, shortened: as §1

HOP-62 = tested on: HOP-62
Procedure, shortened: as §1

NCI-H1755 = tested on: NCI-H1755
Procedure, shortened: as §1

NCI-H1975 = tested on: NCI-H1975
Procedure, shortened: as §1

EMC-BAC-2 = tested on: EMC-BAC-2
Procedure, shortened: as §1

NCI-H2009 = tested on: NCI-H2009
Procedure, shortened: as §1

NCI-H2228 = tested on: NCI-H2228
Procedure, shortened: as §1

NCI-H460 = tested on: NCI-H460
Procedure, shortened: as §1

CAL-12T = tested on: CAL-12T
Procedure, shortened: as §1

HARA = tested on: HARA
Procedure, shortened: as §1

LCLC-103H = tested on: LCLC-103H
Procedure, shortened: as §1

HCC-827 = tested on: HCC-827
Procedure, shortened: as §1

Structure (SMILES): NC(=O)Nc1cc(-c2cccc(F)c2)sc1C(=O)N[C@H]1CCCNC1 [AZD7762] + CC(=O)Nc1cccc(-n2c(=O)n(C3CC3)c(=O)c3c(Nc4ccc(I)cc4F)n(C)c(=O)c(C)c32)c1 [Trametinib] (partner 0.02 µM)
- relative viability (NCI-H1915; first compound 0.01 µM): 0.342
- relative viability (NCI-H1915; first compound 0.03162 µM): 0.332
- relative viability (NCI-H1915; first compound 0.1 µM): 0.305
- relative viability (NCI-H1915; first compound 0.3162 µM): 0.362
- relative viability (NCI-H1915; first compound 1 µM): 0.271
- relative viability (SK-LU-1; first compound 0.01 µM): 0.553
- relative viability (SK-LU-1; first compound 0.03162 µM): 0.609
- relative viability (SK-LU-1; first compound 0.1 µM): 0.393
- relative viability (SK-LU-1; first compound 0.3162 µM): 0.188
- relative viability (SK-LU-1; first compound 1 µM): 0.24
- relative viability (A-427; first compound 0.01 µM): 0.82
- relative viability (A-427; first compound 0.03162 µM): 0.849
- relative viability (A-427; first compound 0.1 µM): 0.772
- relative viability (A-427; first compound 0.3162 µM): 0.655
- relative viability (A-427; first compound 1 µM): 0.331
- relative viability (HCC-366; first compound 0.01 µM): 0.358
- relative viability (HCC-366; first compound 0.03162 µM): 0.329
- relative viability (HCC-366; first compound 0.1 µM): 0.363
- relative viability (HCC-366; first compound 0.3162 µM): 0.325
- relative viability (HCC-366; first compound 1 µM): 0.13
- relative viability (NCI-H1355; first compound 0.01 µM): 0.406
- relative viability (NCI-H1355; first compound 0.03162 µM): 0.466
- relative viability (NCI-H1355; first compound 0.1 µM): 0.368
- relative viability (NCI-H1355; first compound 0.3162 µM): 0.441
- relative viability (NCI-H1355; first compound 1 µM): 0.522
- relative viability (NCI-H23; first compound 0.01 µM): 0.477
- relative viability (NCI-H23; first compound 0.03162 µM): 0.36
- relative viability (NCI-H23; first compound 0.1 µM): 0.421
- relative viability (NCI-H23; first compound 0.3162 µM): 0.392
- relative viability (NCI-H23; first compound 1 µM): 0.201
- relative viability (NCI-H1437; first compound 0.01 µM): 0.561
- relative viability (NCI-H1437; first compound 0.03162 µM): 0.53
- relative viability (NCI-H1437; first compound 0.1 µM): 0.549
- relative viability (NCI-H1437; first compound 0.3162 µM): 0.662
- relative viability (NCI-H1437; first compound 1 µM): 0.494
- relative viability (NCI-H1792; first compound 0.01 µM): 0.406
- relative viability (NCI-H1792; first compound 0.03162 µM): 0.355
- relative viability (NCI-H1792; first compound 0.1 µM): 0.589
- relative viability (NCI-H1792; first compound 0.3162 µM): 0.411
- relative viability (NCI-H1792; first compound 1 µM): 0.527
- relative viability (SW 1573; first compound 0.01 µM): 0.741
- relative viability (SW 1573; first compound 0.03162 µM): 0.502
- relative viability (SW 1573; first compound 0.1 µM): 0.584
- relative viability (SW 1573; first compound 0.3162 µM): 0.583
- relative viability (SW 1573; first compound 1 µM): 0.342
- relative viability (NCI-H1395; first compound 0.01 µM): 1.18
- relative viability (NCI-H1395; first compound 0.03162 µM): 1.12
- relative viability (NCI-H1395; first compound 0.1 µM): 0.92
- relative viability (NCI-H1395; first compound 0.3162 µM): 0.637
- relative viability (NCI-H1395; first compound 1 µM): 0.368
- relative viability (COR-L 105; first compound 0.01 µM): 0.435
- relative viability (COR-L 105; first compound 0.03162 µM): 0.462
- relative viability (COR-L 105; first compound 0.1 µM): 0.416
- relative viability (COR-L 105; first compound 0.3162 µM): 0.444
- relative viability (COR-L 105; first compound 1 µM): 0.43
- relative viability (NCI-H727; first compound 0.01 µM): 0.361
- relative viability (NCI-H727; first compound 0.03162 µM): 0.429
- relative viability (NCI-H727; first compound 0.1 µM): 0.358
- relative viability (NCI-H727; first compound 0.3162 µM): 0.366
- relative viability (NCI-H727; first compound 1 µM): 0.299
- relative viability (HOP-62; first compound 0.01 µM): 0.363
- relative viability (HOP-62; first compound 0.03162 µM): 0.367
- relative viability (HOP-62; first compound 0.1 µM): 0.407
- relative viability (HOP-62; first compound 0.3162 µM): 0.37
- relative viability (HOP-62; first compound 1 µM): 0.343
- relative viability (NCI-H1755; first compound 0.01 µM): 0.788
- relative viability (NCI-H1755; first compound 0.03162 µM): 0.823
- relative viability (NCI-H1755; first compound 0.1 µM): 0.76
- relative viability (NCI-H1755; first compound 0.3162 µM): 0.694
- relative viability (NCI-H1755; first compound 1 µM): 0.635
- relative viability (NCI-H1975; first compound 0.01 µM): 0.341
- relative viability (NCI-H1975; first compound 0.03162 µM): 0.377
- relative viability (NCI-H1975; first compound 0.1 µM): 0.331
- relative viability (NCI-H1975; first compound 0.3162 µM): 0.345
- relative viability (NCI-H1975; first compound 1 µM): 0.24
- relative viability (EMC-BAC-2; first compound 0.01 µM): 1.02
- relative viability (EMC-BAC-2; first compound 0.03162 µM): 0.84
- relative viability (EMC-BAC-2; first compound 0.1 µM): 0.921
- relative viability (EMC-BAC-2; first compound 0.3162 µM): 0.973
- relative viability (EMC-BAC-2; first compound 1 µM): 0.839
- relative viability (NCI-H2009; first compound 0.01 µM): 0.279
- relative viability (NCI-H2009; first compound 0.03162 µM): 0.35
- relative viability (NCI-H2009; first compound 0.1 µM): 0.207
- relative viability (NCI-H2009; first compound 0.3162 µM): 0.295
- relative viability (NCI-H2009; first compound 1 µM): 0.236
- relative viability (NCI-H2228; first compound 0.01 µM): 0.483
- relative viability (NCI-H2228; first compound 0.03162 µM): 0.668
- relative viability (NCI-H2228; first compound 0.1 µM): 0.461
- relative viability (NCI-H2228; first compound 0.3162 µM): 0.37
- relative viability (NCI-H2228; first compound 1 µM): 0.187
- relative viability (NCI-H460; first compound 0.01 µM): 0.327
- relative viability (NCI-H460; first compound 0.03162 µM): 0.179
- relative viability (NCI-H460; first compound 0.1 µM): 0.226
- relative viability (NCI-H460; first compound 0.3162 µM): 0.171
- relative viability (NCI-H460; first compound 1 µM): 0.0341
- relative viability (CAL-12T; first compound 0.01 µM): 0.391
- relative viability (CAL-12T; first compound 0.03162 µM): 0.402
- relative viability (CAL-12T; first compound 0.1 µM): 0.377
- relative viability (CAL-12T; first compound 0.3162 µM): 0.325
- relative viability (CAL-12T; first compound 1 µM): 0.217
- relative viability (HARA; first compound 0.01 µM): 0.686
- relative viability (HARA; first compound 0.03162 µM): 0.629
- relative viability (HARA; first compound 0.1 µM): 0.868
- relative viability (HARA; first compound 0.3162 µM): 0.664
- relative viability (HARA; first compound 1 µM): 0.295
- relative viability (LCLC-103H; first compound 0.01 µM): 0.683
- relative viability (LCLC-103H; first compound 0.03162 µM): 0.674
- relative viability (LCLC-103H; first compound 0.1 µM): 0.712
- relative viability (LCLC-103H; first compound 0.3162 µM): 0.574
- relative viability (LCLC-103H; first compound 1 µM): 0.712
- relative viability (HCC-827; first compound 0.01 µM): 0.577
- relative viability (HCC-827; first compound 0.03162 µM): 0.534
- relative viability (HCC-827; first compound 0.1 µM): 0.561
- relative viability (HCC-827; first compound 0.3162 µM): 0.575
- relative viability (HCC-827; first compound 1 µM): 0.376
